Reference: patent publication US11306313B2, “Peptide, complex of peptide and siRNA, and methods of use thereof” (Positec Power Tools (Suzhou) Co., Ltd, priority 2013, dated 2022)
Where a SMILES comes first, the peptide text is derived from it.

Columns and labels:
[1] = Cytotoxicity test (CCK8 cell viability); assay type: cell-based; conditions: CHO-K1 cells, FIG. 5, molar ratio 20/1 and 40/1, siRNA 50 nM, read-out: cell survival rate
Protocol: CHO-K1 cells were seeded at 5,000-8,000 cells/well in clear, flat-bottomed, 96-well plates in triplicate and grown for 24 h at 37° C. with 5% CO2. The complexes or control samples were added to the cells in 150 μl of standard media and the cells were incubated for 48 h. The CCK8 assay was used to determine cell viability, according to the manufacturer's instructions. Briefly, […] of CCK8 stock was added to each well and incubated for 2 h at 37° C. in 5% CO2. Then, the cultures were removed from the incubator and the absorbance at 570 nm was read on a plate reader (FLUOstar OPTIMA, BMG, Germany). The background absorbance of the multiwell plates at 690 nm was determined and subtracted from the 570 nm measurement. The results obtained from triplicate wells were averaged and normalized using the value obtained for non-treated cells.

[2] = reported in WO2013/075244 A1; cited from earlier work
[3] = reported in WO2013/075244 A1; cited from earlier work; remark: listed apart in the source
[4] = Cell absorption test; assay type: cell-based

Compound: CC(=O)NCC(=O)N[C@@H](CC(C)C)C(=O)N[C@@H](Cc1c[nH]c2ccccc12)C(=O)N[C@@H](Cc1c[nH]cn1)C(=O)N[C@@H](C)C(=O)N[C@@H](Cc1c[nH]c2ccccc12)C(=O)N[C@@H](CC(C)C)C(=O)N[C@@H](Cc1c[nH]c2ccccc12)C(=O)N[C@@H](Cc1c[nH]cn1)C(=O)N[C@@H](C)C(=O)N[C@@H](Cc1ccccc1)C(=O)N[C@@H](CC(C)C)C(=O)N[C@@H](C)C(=O)N[C@@H](CO)C(=O)N[C@@H](Cc1c[nH]cn1)C(=O)N[C@@H](CCCNC(=N)N)C(=O)N[C@@H](CC(C)C)C(=O)N[C@@H](CC(C)C)C(=O)N[C@@H](CCCNC(=N)N)C(=O)N[C@@H](CC(C)C)C(=O)N[C@@H](CC(C)C)C(=O)N[C@@H](CCCNC(=N)N)C(N)=O [GL5, CH3CONH-GLWHAWLWHAFLASHR LLRLLR-CONH2] (Ac-GLWHAWLWHAFLASHRLLRLLR-NH2)
- viability at 48 h [1]: ~105%

Compound: GLWRAWLWKAFLASNWRRLLRLLR (Synthetic sequence - peptide GL1)
- gene silencing efficiency [2]: about 50%
- siRNA delivery (uptake) efficiency [3]: about 95%

Compound: CH3(CH2)16CONH-HHHHHHHHHHHHHHHHRRRRRRRR-CONH2 (stearyl-HHHHHHHHHHHHHHHHRRRRRRRR-NH2) [STR-HR]
- absorption efficiency compared with lipid 2000 [4]: higher than that of lipid 2000
